# From PubChem BioAssay AID624303 (The Scripps Research Institute Molecular Screening Center, 2012)
# The source made the active and inactive calls.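 The calls were made as follows: active = inhibition of at least 2%; inactive = inhibition below 2%.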
# Target: Tyrosine-protein kinase ABL1 (Homo sapiens) (UniProt P00519)
# Assay: ABL1 kinase inhibition, RIN1-independent, late-stage follow-up, RIN1-ABL interaction inhibitor project, biochemical, purified CRK substrate, chemiluminescent immunoblot, powders, round 1 (AID 624303)
# Conditions: purified ABL1 phosphorylating CRK, anti-pTyr chemiluminescence blot; at 10 µM; hits give high values
# Tyrosine-protein kinase ABL1 (Homo sapiens), sequence (P00519 whole entry, looked up): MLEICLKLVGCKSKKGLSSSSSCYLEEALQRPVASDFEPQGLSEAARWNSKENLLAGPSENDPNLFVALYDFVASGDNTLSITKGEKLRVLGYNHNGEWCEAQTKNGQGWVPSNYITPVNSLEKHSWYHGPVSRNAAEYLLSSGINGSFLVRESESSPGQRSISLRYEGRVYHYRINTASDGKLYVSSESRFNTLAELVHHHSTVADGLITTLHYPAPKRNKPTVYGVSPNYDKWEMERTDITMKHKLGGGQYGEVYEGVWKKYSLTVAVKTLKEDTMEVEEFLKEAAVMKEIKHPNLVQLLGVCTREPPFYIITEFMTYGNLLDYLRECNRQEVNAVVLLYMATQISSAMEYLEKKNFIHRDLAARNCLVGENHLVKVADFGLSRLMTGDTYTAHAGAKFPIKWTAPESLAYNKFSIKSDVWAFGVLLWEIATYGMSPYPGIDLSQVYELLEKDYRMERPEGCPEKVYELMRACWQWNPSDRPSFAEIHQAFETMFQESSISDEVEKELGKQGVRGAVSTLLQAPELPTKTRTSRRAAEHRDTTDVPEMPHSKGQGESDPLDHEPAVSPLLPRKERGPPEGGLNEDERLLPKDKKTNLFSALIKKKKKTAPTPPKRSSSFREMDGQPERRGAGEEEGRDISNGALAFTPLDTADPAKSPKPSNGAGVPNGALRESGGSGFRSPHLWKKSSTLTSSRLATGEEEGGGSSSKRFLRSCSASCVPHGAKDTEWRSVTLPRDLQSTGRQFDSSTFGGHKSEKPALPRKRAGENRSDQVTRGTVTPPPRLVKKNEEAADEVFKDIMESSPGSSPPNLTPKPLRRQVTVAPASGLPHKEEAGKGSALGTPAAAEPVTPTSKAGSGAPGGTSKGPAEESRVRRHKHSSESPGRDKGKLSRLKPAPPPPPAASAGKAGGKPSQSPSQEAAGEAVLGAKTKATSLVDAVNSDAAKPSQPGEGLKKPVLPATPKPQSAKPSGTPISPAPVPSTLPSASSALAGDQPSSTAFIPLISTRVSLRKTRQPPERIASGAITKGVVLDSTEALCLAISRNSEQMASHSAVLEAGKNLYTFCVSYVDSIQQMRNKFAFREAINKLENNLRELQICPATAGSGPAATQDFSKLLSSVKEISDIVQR
row,SMILES,inhibition
1,CCOC(=O)N1CCN(C(=O)Nc2ccc(NC(=O)N3CCN(C(=O)OCC)CC3)cc2)CC1,0% (inactive)
2,CN(C(=O)c1ccc(NC(=O)Cc2ccc(NC(=O)C3CCN(C(=O)c4ccc(F)cc4)CC3)cc2)cc1)C1CC1,0% (inactive)
3,COc1cccc(CSc2nnc(CSc3nc4nc(C)cc(C)n4n3)s2)c1,0% (inactive)
4,CN(CCc1ccccc1)C(=O)c1ccc(NC(=O)Cc2ccc(NC(=O)C3CCN(C(=O)c4ccccc4)CC3)cc2)cc1,0% (inactive)
5,O=C(Cc1ccc(NC(=O)C2CCN(C(=O)c3ccccc3)CC2)cc1)Nc1ccc(C(=O)N2CCOCC2)cc1,0% (inactive)
6,CC(=O)Nc1ccc(NC(=O)C2CCN(C(=O)c3cccs3)CC2)cc1,0% (inactive)
7,COc1ccc(C(=O)N2CCC(C(=O)Nc3ccc(CC(=O)Nc4ccc(C(=O)N(C)C5CC5)cc4)cc3)CC2)cc1,0% (inactive)
8,CSc1ccccc1OCc1cc(C(=O)N2CCNC(=O)C2)no1,0% (inactive)
9,Cn1c(=O)c2c(nc(-n3ccnc3)n2Cc2ccc(Cl)cc2Cl)n(C)c1=O,0% (inactive)
10,O=C(c1cc(COc2cccc3cccnc23)on1)N1CCC[C@H]1CO,0% (inactive)
11,CN(C(=O)c1ccc(NC(=O)Cc2ccc(NC(=O)C3CCN(C(=O)c4cccc(F)c4)CC3)cc2)cc1)C1CC1,0% (inactive)
12,COc1ccc2oc(C(=O)NCC(c3ccco3)N(C)C)c(C)c2c1 (configuration not stated),0% (inactive)
13,CN(C(=O)c1ccc(NC(=O)Cc2ccc(NC(=O)C3CCN(C(=O)c4ccccc4)CC3)cc2)cc1)C1CC1,0% (inactive)
14,O=C(Cc1ccc(NC(=O)C2CCN(C(=O)C3CCCC3)CC2)cc1)Nc1ccc(C(=O)N2CCOCC2)cc1,0% (inactive)
15,N#Cc1ccccc1Sc1ccccc1C(=O)NCC(c1ccco1)N1CCCC1 (configuration not stated),0% (inactive)
16,CCOC(=O)N1CCC(NC(=O)CCc2nc(C3=CCN(C)CC3)no2)CC1,0% (inactive)
17,COc1ccc(CCNc2cc(=O)[nH]c(N)n2)cc1,0% (inactive)
18,O=c1cc(OCc2ccccc2)cc[nH]1,0% (inactive)
19,CN(Cc1c(F)cccc1Cl)C(=O)CNC(=O)c1ccc2c(c1)OCO2,0% (inactive)
20,CN(CCc1ccccc1)C(=O)c1ccc(NC(=O)Cc2ccc(NC(=O)C3CCN(C(=O)C4CCCC4)CC3)cc2)cc1,0% (inactive)
21,O=C(Cc1ccc(NC(=O)C2CCN(C(=O)C3CCCCC3)CC2)cc1)Nc1ccc(C(=O)N2CCOCC2)cc1,0% (inactive)
22,Cc1c(C(=O)NCC(c2ccco2)N(C)C)oc2c(Cl)cccc12 (configuration not stated),0% (inactive)
